Usually IC50 stands for the concentration at which inhibition is half-maximal. The low end stands for greater potency, the high end for weaker potency.

ROCK2 (human), sequence (O75116 whole entry, looked up): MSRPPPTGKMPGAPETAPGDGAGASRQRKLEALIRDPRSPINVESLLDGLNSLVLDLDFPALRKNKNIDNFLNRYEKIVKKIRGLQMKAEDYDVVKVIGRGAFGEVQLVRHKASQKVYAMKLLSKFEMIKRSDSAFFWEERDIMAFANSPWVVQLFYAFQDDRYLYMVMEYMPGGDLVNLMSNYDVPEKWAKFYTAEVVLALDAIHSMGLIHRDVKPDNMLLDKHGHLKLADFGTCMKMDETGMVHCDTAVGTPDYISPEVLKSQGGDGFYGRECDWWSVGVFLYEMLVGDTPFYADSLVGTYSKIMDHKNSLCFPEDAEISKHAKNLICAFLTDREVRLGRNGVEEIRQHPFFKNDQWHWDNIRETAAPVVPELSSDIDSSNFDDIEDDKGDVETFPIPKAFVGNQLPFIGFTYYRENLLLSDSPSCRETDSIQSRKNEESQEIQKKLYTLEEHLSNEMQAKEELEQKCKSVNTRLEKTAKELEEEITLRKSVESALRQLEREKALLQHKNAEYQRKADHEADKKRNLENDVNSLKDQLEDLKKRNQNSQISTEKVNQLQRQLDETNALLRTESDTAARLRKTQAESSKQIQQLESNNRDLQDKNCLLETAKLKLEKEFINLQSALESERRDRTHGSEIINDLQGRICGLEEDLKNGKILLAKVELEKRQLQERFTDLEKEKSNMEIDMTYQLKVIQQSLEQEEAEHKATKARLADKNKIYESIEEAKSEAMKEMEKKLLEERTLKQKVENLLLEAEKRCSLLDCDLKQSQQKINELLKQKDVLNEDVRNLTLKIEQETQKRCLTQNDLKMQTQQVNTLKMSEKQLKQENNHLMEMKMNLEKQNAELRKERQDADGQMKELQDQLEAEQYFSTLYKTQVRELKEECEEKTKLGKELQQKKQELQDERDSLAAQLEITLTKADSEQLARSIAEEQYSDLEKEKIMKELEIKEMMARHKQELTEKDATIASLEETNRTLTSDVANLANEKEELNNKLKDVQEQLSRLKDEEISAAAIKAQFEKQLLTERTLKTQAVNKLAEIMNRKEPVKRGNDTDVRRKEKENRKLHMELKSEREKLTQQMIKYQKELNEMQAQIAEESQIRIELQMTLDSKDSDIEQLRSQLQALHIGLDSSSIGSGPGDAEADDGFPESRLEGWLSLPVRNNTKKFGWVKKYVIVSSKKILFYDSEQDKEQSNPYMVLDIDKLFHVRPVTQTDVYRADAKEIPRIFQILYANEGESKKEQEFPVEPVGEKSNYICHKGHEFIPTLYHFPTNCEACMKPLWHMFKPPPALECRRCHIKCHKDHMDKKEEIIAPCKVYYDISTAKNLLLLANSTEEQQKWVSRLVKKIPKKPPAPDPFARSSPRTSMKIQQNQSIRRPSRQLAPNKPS

This experiment concerns the target ROCK2 (human) (UniProt O75116). Put plainly: Inhibition of ROCK2 Kinase Activity.
`COc1ccc([N+](=O)[O-])c(C(=O)NCc2nc(-c3c[nH]c4ncccc34)n[nH]2)c1`: the IC50 was greater than 5 µM.
Next, `O=C(NCc1nc(-c2c[nH]c3ncccc23)n[nH]1)c1ccc(OCc2ccccc2)cc1`: greater than 5 µM; `CC(C)Cc1ccc(C(C)C(=O)NCc2nc(-c3c[nH]c4ncccc34)n[nH]2)cc1` (centres undefined): greater than 5 µM.
The value for `O=C(NCc1nc(-c2c[nH]c3ncccc23)n[nH]1)c1cc(F)c(F)cc1Cl` was greater than 5 µM; that for `Cc1cccc(C(=O)NCc2nc(-c3ccncc3)n[nH]2)c1[N+](=O)[O-]` was greater than 5 µM.
`O=C(NCc1nc(-c2c[nH]c3ncccc23)n[nH]1)c1cncc(Br)c1` registered an IC50 greater than 5 µM.
On to `COc1cc(OC)c(C(=O)NCc2nc(-c3ccncc3)n[nH]2)c(OC)c1`, for which the IC50 was greater than 5 µM.
The value for `O=C(NCc1nc(-c2ccncc2)n[nH]1)c1ccc(C(F)(F)F)cc1[N+](=O)[O-]` was greater than 5 µM.
The value for `CCOc1ccccc1C(=O)NCc1nc(-c2ccncc2)n[nH]1` was greater than 5 µM; that for `O=C(NCc1nc(-c2ccncc2)n[nH]1)c1ccc(O)cc1` was no more than 5 µM.
As to `O=C(NCc1nc(-c2c[nH]c3ncccc23)n[nH]1)c1ccccc1Cl`, the IC50 is greater than 5 µM.
The value for `Cc1cccc(C(=O)NCc2nc(-c3c[nH]c4ncccc34)n[nH]2)c1O` was greater than 5 µM; that for `CCOC(=O)CC(=O)NCc1nc(-c2c[nH]c3ncccc23)n[nH]1` was greater than 5 µM; that for `Cc1cccc(CCC(=O)NCc2nc(-c3ccncc3)n[nH]2)c1` was greater than 5 µM.
Next, `O=C(C=Cc1ccccc1Cl)NCc1nc(-c2c[nH]c3ncccc23)n[nH]1`: greater than 5 µM; `O=C(NCc1nc(-c2c[nH]c3ncccc23)n[nH]1)c1c(F)c(F)c(F)c(F)c1F`: greater than 5 µM.
Next, `CC(NC(=O)OC(C)(C)C)C(=O)NCc1nc(-c2ccncc2)n[nH]1` (centres undefined): greater than 5 µM; `N#Cc1ccc(C(=O)NCc2nc(-c3c[nH]c4ncccc34)n[nH]2)cc1`: greater than 5 µM.
In turn, `O=C(NCc1nc(-c2c[nH]c3ncccc23)n[nH]1)c1ccc(Cl)c([N+](=O)[O-])c1` registered an IC50 greater than 5 µM.
The value for `CC(CC(=O)NCc1nc(-c2ccncc2)n[nH]1)CC(C)(C)C` (centres undefined) was greater than 5 µM.
The value for `O=C(NCc1nc(-c2c[nH]c3ncccc23)n[nH]1)c1cc2ccccc2s1` was greater than 5 µM; that for `CCc1ccc(C(=O)NCc2nc(-c3c[nH]c4ncccc34)n[nH]2)cc1` was greater than 5 µM.
Next, `CC(C)CC(NC(=O)OC(C)(C)C)C(=O)NCc1nc(-c2c[nH]c3ncccc23)n[nH]1` (centres undefined): greater than 5 µM.
On to `CN(C=O)c1ccc(C(=O)NCc2nc(-c3c[nH]c4ncccc34)n[nH]2)cc1`, for which the IC50 is greater than 5 µM.
The compound `O=C(NCc1nc(-c2ccncc2)n[nH]1)c1ccc(F)c([N+](=O)[O-])c1` showed an IC50 greater than 5 µM.
For the compound `Cc1ccc(C(=O)NCc2nc(-c3c[nH]c4ncccc34)n[nH]2)cc1Br`, the 50% inhibitory concentration (IC50) was greater than 5 µM.
The value for `O=C(NCc1nc(-c2ccncc2)n[nH]1)c1c(F)cccc1F` was greater than 5 µM; that for `O=C(NCc1nc(-c2c[nH]c3ncccc23)n[nH]1)c1ccc([N+](=O)[O-])c(O)c1` was greater than 5 µM; that for `O=C(NCc1nc(-c2ccncc2)n[nH]1)c1ccc(Cl)cc1O` was greater than 5 µM.
Next, `O=C(c1cccs1)N1CCCC1c1nc(-c2ccncc2)n[nH]1` (centres undefined): greater than 5 µM; `CC(C)c1ccc(C(=O)NCc2nc(-c3ccncc3)n[nH]2)cc1`: greater than 5 µM; `O=C(Cc1cccc(O)c1)NCc1nc(-c2ccncc2)n[nH]1`: greater than 5 µM.
Consider `O=C(NCc1nc(-c2ccncc2)n[nH]1)c1cccc(I)c1`, for which the IC50 is greater than 5 µM.
The value for `COc1cc(OC)c(C(=O)NCc2nc(-c3ccncc3)n[nH]2)cc1OC` was greater than 5 µM; that for `O=C(NCc1nc(-c2ccncc2)n[nH]1)c1cccc(Br)c1` was greater than 5 µM; that for `O=C(NCc1nc(-c2c[nH]c3ncccc23)n[nH]1)c1cc(F)ccc1[N+](=O)[O-]` was greater than 5 µM.
Next, `COc1cc(OC)c(C(=O)NCc2nc(-c3c[nH]c4ncccc34)n[nH]2)cc1OC`: greater than 5 µM; `CCCOc1ccc(C(=O)NCc2nc(-c3c[nH]c4ncccc34)n[nH]2)cc1`: greater than 5 µM.
Next, `Cc1cc(C(=O)NCc2nc(-c3ccncc3)n[nH]2)ccc1O`: no more than 5 µM; `O=C(Nc1cccc2c(-c3ccncc3)n[nH]c12)c1cccs1`: greater than 5 µM; `O=C(Cc1ccc2c(c1)OCO2)NCc1nc(-c2ccncc2)n[nH]1`: greater than 5 µM.
Turning to `O=C(NCc1nc(-c2ccncc2)n[nH]1)c1cccs1`, the IC50 is no more than 5 µM.
Next, `O=C(Cc1ccc(Br)cc1)NCc1nc(-c2c[nH]c3ncccc23)n[nH]1`: greater than 5 µM; `Cc1cc(C(=O)NCc2nc(-c3c[nH]c4ncccc34)n[nH]2)cc(Cl)n1`: greater than 5 µM; `CC(=O)NC(Cc1ccc(O)cc1)C(=O)NCc1nc(-c2ccncc2)n[nH]1` (centres undefined): greater than 5 µM.
Next, `O=C(NCc1nc(-c2ccncc2)n[nH]1)c1cc(F)c(F)cc1[N+](=O)[O-]`: greater than 5 µM; `O=CC(=O)NCc1nc(-c2c[nH]c3ncccc23)n[nH]1`: greater than 5 µM; `COc1ccc(C(=O)NCc2nc(-c3c[nH]c4ncccc34)n[nH]2)cc1O`: greater than 5 µM.
The value for `O=C(C=Cc1ccc(Cl)cc1)NCc1nc(-c2ccncc2)n[nH]1` was greater than 5 µM; that for `CC(C)C(C(=O)NCc1nc(-c2c[nH]c3ncccc23)n[nH]1)N(C)C(=O)OC(C)(C)C` (centres undefined) was greater than 5 µM; that for `CC1=NN(c2ccc(C(=O)NCc3nc(-c4c[nH]c5ncccc45)n[nH]3)cc2)C(=O)C1` was greater than 5 µM.
In turn, `COc1ccc2cc(C(C)C(=O)NCc3nc(-c4ccncc4)n[nH]3)ccc2c1` (centres undefined) returned an IC50 greater than 5 µM.
The value for `O=C(NCc1nc(-c2c[nH]c3ncccc23)n[nH]1)c1cccc(F)c1` was greater than 5 µM; that for `O=C(NCc1nc(-c2c[nH]c3ncccc23)n[nH]1)c1ccc(O)cc1O` was no more than 5 µM.
The value for `O=C(NCc1nc(-c2ccncc2)n[nH]1)c1ccc(Cl)cc1Cl` was greater than 5 µM.
Next, `O=C(C=Cc1ccc(Cl)cc1)NCc1nc(-c2c[nH]c3ncccc23)n[nH]1`: greater than 5 µM; `CCC(C)C(NC(=O)OC(C)(C)C)C(=O)NCc1nc(-c2c[nH]c3ncccc23)n[nH]1` (centres undefined): greater than 5 µM.
The compound `O=C(NCc1nc(-c2ccncc2)n[nH]1)c1ccncc1Cl` registered an IC50 greater than 5 µM.
Next, `O=C(C=Cc1ccccc1O)NCc1nc(-c2c[nH]c3ncccc23)n[nH]1`: greater than 5 µM.
Next, `O=C(NCc1nc(-c2c[nH]c3ncccc23)n[nH]1)c1cccc(Cl)c1Cl`: greater than 5 µM; `O=C(NCc1nc(-c2ccncc2)n[nH]1)c1cccc(O)c1O`: greater than 5 µM; `O=C(NCc1nc(-c2ccncc2)n[nH]1)c1ccc(Oc2cccc(O)c2)cc1`: no more than 5 µM.
The value for `O=C(NCc1nc(-c2c[nH]c3ncccc23)n[nH]1)c1ccc(F)cc1F` was greater than 5 µM; that for `O=C(NCc1nc(-c2c[nH]c3ncccc23)n[nH]1)c1cc(Cl)ccc1[N+](=O)[O-]` was greater than 5 µM; that for `Cn1cnc(C(=O)NCc2nc(-c3c[nH]c4ncccc34)n[nH]2)c1` was greater than 5 µM.
`CCC(C(=O)NCc1nc(-c2c[nH]c3ncccc23)n[nH]1)c1ccccc1` (centres undefined) displayed an IC50 greater than 5 µM.
On to `O=C(NCc1nc(-c2ccncc2)n[nH]1)c1ccc(Cl)c([N+](=O)[O-])c1`, for which the IC50 was greater than 5 µM.
Next, `O=Cc1ccccc1C(=O)NCc1nc(-c2c[nH]c3ncccc23)n[nH]1`: greater than 5 µM.
The value for `Cc1ccc(C(=O)NCc2nc(-c3ccncc3)n[nH]2)cc1Br` was greater than 5 µM; that for `O=C(NCc1nc(-c2ccncc2)n[nH]1)c1ccccc1[N+](=O)[O-]` was greater than 5 µM; that for `Cc1ccc(C(=O)CCC(=O)NCc2nc(-c3ccncc3)n[nH]2)cc1` was greater than 5 µM.
The value for `COc1ccc(Cl)cc1C(=O)NCc1nc(-c2c[nH]c3ncccc23)n[nH]1` was greater than 5 µM; that for `O=C(NCc1nc(-c2ccncc2)n[nH]1)c1ccc(Cl)c(Br)c1` was greater than 5 µM; that for `O=C(NCc1nc(-c2ccncc2)n[nH]1)c1ccc(F)cc1Cl` was greater than 5 µM.
Turning to `COC(=O)c1ccc(C(=O)NCc2nc(-c3ccncc3)n[nH]2)cc1`, the IC50 was no more than 5 µM.
The value for `CC(=O)c1ccc(C(=O)NCc2nc(-c3c[nH]c4ncccc34)n[nH]2)cc1` was no more than 5 µM; that for `O=C(NCc1nc(-c2c[nH]c3ncccc23)n[nH]1)C1CCCN1C(=O)OCc1ccccc1` (centres undefined) was greater than 5 µM.
The value for `Cc1ccc(C(=O)NCc2nc(-c3c[nH]c4ncccc34)n[nH]2)cc1C` was greater than 5 µM; that for `O=C(NCc1nnc(-c2ccnc3[nH]ccc23)o1)c1ccc(O)cc1O` was no more than 5 µM; that for `CC(C)Oc1ccc(C(=O)NCc2nc(-c3ccncc3)n[nH]2)cc1` was greater than 5 µM.
Next, `NC1CCN(C(=O)Cc2nc(-c3ccncc3)n[nH]2)C1` (centres undefined): greater than 5 µM.
As to `O=C(NCc1nc(-c2c[nH]c3ncccc23)n[nH]1)C1CCc2ccccc2C1` (centres undefined), the concentration for half-maximal inhibition (IC50) was greater than 5 µM.
The value for `CC(=O)NCC(=O)NCc1nc(-c2ccncc2)n[nH]1` was greater than 5 µM.
The value for `O=C(NCc1nc(-c2c[nH]c3ncccc23)n[nH]1)c1c(O)ccc2ccccc12` was greater than 5 µM.
The value for `c1ccc2c(NCc3nc(-c4ccncc4)n[nH]3)n[nH]c2c1` was greater than 5 µM; that for `Cc1nc(Br)sc1C(=O)NCc1nc(-c2ccncc2)n[nH]1` was greater than 5 µM.
`O=C(NCc1nc(-c2ccncc2)no1)c1cccs1`: the IC50 was greater than 5 µM.
The value for `O=C(NCc1nc(-c2c[nH]c3ncccc23)n[nH]1)c1cccc(Oc2ccccc2)c1` was greater than 5 µM; that for `CC(O)C(=O)NCc1nc(-c2c[nH]c3ncccc23)n[nH]1` (centres undefined) was greater than 5 µM; that for `COc1ccc(C(=O)NCc2nc(-c3ccncc3)n[nH]2)cc1C` was greater than 5 µM.
For the compound `O=C(NCc1nc(-c2c[nH]c3ncccc23)n[nH]1)c1cccc(Br)n1`, the IC50 was greater than 5 µM.
As to `COc1cccc(O)c1C(=O)NCc1nc(-c2ccncc2)n[nH]1`, the IC50 was no more than 5 µM.
Next, `CC(=O)Oc1ccc(C(=O)NCc2nc(-c3c[nH]c4ncccc34)n[nH]2)cc1`: no more than 5 µM; `CC(CC(=O)NCc1nc(-c2c[nH]c3ncccc23)n[nH]1)CC(C)(C)C` (centres undefined): greater than 5 µM.

The values are drawn from the Kinase Knowledgebase extract (Sharma et al. 2016).
